Measured values as given in PMC8346995, “Synthesis, Characterization, In Vitro Anticancer Potentiality, and Antimicrobial Activities of Novel Peptide–Glycyrrhetinic-Acid-Based Derivatives” (Molecules, 2021).
≈ marks a conversion by molar mass, not a printed value. Residues, ends and D or L forms follow the SMILES beside them. *: point of attachment. X1 = CC1(C(=O)*)CCC2(C)CCC3(C)C(=CC(=O)C4C5(C)CCC(O)C(C)(C)C5CCC43C)C2C1

Assays:
[1] = system: human normal skin fibroblasts cell line BJ-1; assay: Cytotoxicity against normal skin fibroblasts BJ-1; type: cell-based; details: BJ-1, 10 µg/mL
Description: The frequency and severity of side effects to normal cells at therapeutic levels is one of the most critical factors that distinguish different anticancer drugs from each other. Accordingly, the GA peptides 1–8 were furthermore screened for their cytotoxicity at 10 µg/mL against the human normal skin fibroblasts cell line BJ-1 to determine their safety upon normal cells (Figure 4).

[2] = system: Escherichia coli ATCC25922; assay: Well diffusion assay, Escherichia coli; type: cell-based
Description: (§1) The newly synthesized peptides 1–8 (compound 6 was not tested) was evaluated for their antimicrobial activity of against three pathogenic Gram-positive bacteria (Staphylococcus aureus ATCC25923, Streptococcus pneumoniaRCMB 010010, and Micrococcus Luteus), three pathogenic Gram-negative bacteria viz. Escherichia coli ATCC25922, Pseudomonas aeruginosa ATCC7853, and Proteus vulgaris RCMB 010085, and the yeast Candida albicans using the well diffusion method. […] The obtained data were documented for each derivative as the average diameter of the inhibition zones (IZ) in mm for the bacterial or the yeast growth around the discs (Table 2). […] Although Micrococcus Luteus bacteria is a normal commensal of human skin and the upper respiratory tract, it acts as an opportunistic pathogen and has been associated with various diseases including meningitis, septic arthritis, and endocarditis. […] Antimicrobial activity of the tested chemical peptides was determined by the well diffusion method for pathogenic bacteria having Gram-positive bacteria (Staphylococcus aureus ATCC25923, Streptococcus pneumonia, and Micrococcus luteus) and Gram-negative bacteria (Escherichia coli ATCC25922, Pseudomonas aeruginosa ATCC7853, and Proteus sp.) and Candida albicans as human pathogen yeast using the well diffusion method.

[3] = system: human colon HCT-116 cancer cell line; assay: MTT cytotoxicity assay, colon HCT-116 cancer cell line; details: for IC50: Homo sapiens, HCT-116, read-out: IC50 (µg/mL) ± SD HCT-116
Description: (§2) Accordingly, all the newly synthesized GA-based peptides except 1 and 6 were screened for their cytotoxicity against three different human cancer cell lines: MCF-7, HCT-116, and HepG-2 cell lines at different concentrations (10, 5, 2.5, 1.25, and 0.625 µg/mL).
(§3) Human breast MCF-7, colon HCT-116, and liver HepG-2 carcinoma cell line were taken from Vacsera (Giza, Egypt). The culture was retained in RPMI 1640 medium with 1% antibiotic–antimycotic mixture (25 μg/mL amphotericin B, 10,000 μg/mL streptomycin sulfate, and 10,000 U/mL potassium penicillin), 1% L-glutamine, and complemented by 10% heat inactivated fetal bovine serum. […] This experiment was carried out according to the reported MTT assay method, and the absorbance was measured at 595 nm.

[4] = system: Streptococcus pneumonia RCMB 010010; assay: Well diffusion assay, Streptococcus pneumonia; type: cell-based; details: Streptococcus pneumonia RCMB 010010, well diffusion
Description: as §1

[5] = system: Micrococcus Luteus; assay: Well diffusion assay, Micrococcus Luteus; type: cell-based
Description: as §1

[6] = system: Pseudomonas aeruginosa ATCC7853; assay: Well diffusion assay, Pseudomonas aeruginosa; type: cell-based
Description: as §1

[7] = system: human breast MCF-7 cancer cell line; assay: MTT cytotoxicity assay, breast MCF-7 cancer cell line; type: cell-based; details: for cytotoxicity percentage: MCF-7, 10 µg/mL; for IC50: Homo sapiens, MCF7, MTT, mean of three replicates, read-out: IC50 (µg/mL) ± SD MCF-7
Description: as §2, §3

[8] = system: Staphylococcus aureus ATCC25923; assay: Well diffusion assay, Staphylococcus aureus; type: cell-based
Description: as §1

[9] = system: Candida albicans; assay: Well diffusion assay, Candida albicans; type: cell-based
Description: as §1

[10] = system: Proteus vulgaris RCMB 010085; assay: Well diffusion assay, Proteus vulgaris; type: cell-based; details: Proteus vulgaris RCMB 010085, well diffusion
Description: as §1

[11] = system: MCF-7 cells; assay: DNA fragmentation through DPA assay in MCF-7 cells; type: cell-based, human; details: treated MCF-7 cells; untreated 7.8%
Description: Caspases are a family of cysteine proteases that are responsible for launching the programmed cell death (apoptosis). […] Cell shrinkage, chromatin condensation, and DNA fragmentation are all apoptosis events, which need the involvement of caspase-7and caspase-3 [48, 54, 56].
Assessment of DNA fragmentation of the cells was done, as described by the reported method. Briefly, the cells were lysed for 15 min on ice with 0.5% (v/v) Triton X-100, 20 mM EDTA, and […] Tris (pH 8.0). Then, the cells were centrifuged to separate intact chromatin from DNA fragments for 20 min, at 27,000 Xg. Measurement of the amount of DNA was done using a diphenylamine reagent, and the optical density was measured at 600 nm.

[12] = system: human liver cancer (HepG-2) cell line; assay: MTT cytotoxicity assay, liver HepG-2 cancer cell line; type: cell-based
Description: as §2, §3

| Structure (SMILES) | melting point [°C] | cytotoxic effect on normal cells BJ-1 [1] [%] | Diameter of Inhibition Zone (mm) [2] [mm] | cytotoxicity percentage ([3]; HCT-116, 10 µg/mL) | Diameter of Inhibition Zone (mm) [4] [mm] | Diameter of Inhibition Zone (mm) [5] [mm] | Diameter of Inhibition Zone (mm) [6] [mm] | cytotoxicity percentage [7] | Diameter of Inhibition Zone (mm) [8] [mm] | Diameter of Inhibition Zone (mm) [9] [mm] | IC50 [3] [µg/mL] | IC50 [7] [µg/mL] | Diameter of Inhibition Zone (mm) [10] [mm] | percentage of DNA fragmentation [11] [%] | cytotoxicity percentage ([12]; HepG-2, 10 µg/mL) [%] | IC50 ([12]; Homo sapiens, HepG2, MTT, mean of three replicates, read-out: IC50 (µg/mL) ± SD HepG-2) [µg/mL] | cytotoxicity percentage ([3]; human, 10 µg/mL) [%] |
| --- | --- | --- | --- | --- | --- | --- | --- | --- | --- | --- | --- | --- | --- | --- | --- | --- | --- |
| CCOC(=O)CNC(=O)CNC(=O)C1(C)CCC2(C)CCC3(C)C(=CC(=O)C4C5(C)CCC(O)C(C)(C)C5CCC43C)C2C1 (stereo not shown) [Compound 1, Ethyl 2-(2-(10-Hydroxy-2,4a,6a,6b,9,9,12a-heptamethyl-13-oxo-1,2,3,4,4a,5,6,6a,6b,7,8,8a,9,10,11,12,12a,12b,13,14b-icosahydropicene-2-carboxamido)acetamido)acetate] | 160 to 162 | 7 | 20 ± 0.25 | weak effect | 15 ± 0.16 | 30 ± 0.21 | 18 ± 0.15 | 65.3% | 15 ± 0.16 |  |  |  |  |  |  |  |  |
| CC(=O)N1CCN(c2ccc(OCC3COC(Cn4ccnc4)(c4ccc(Cl)cc4Cl)O3)cc2)CC1 (stereo not shown) [KC, ketoconazole, reference compound] |  |  |  |  |  |  |  |  |  | 22.8 ± 0.10 |  |  |  |  |  |  |  |
| CCCC(NC(=O)C(CC(C)C)NC(=O)OC(C)(C)C)C(=O)OC1CCC2(C)C(CCC3(C)C2C(=O)C=C2C4CC(C)(C(=O)NCC(=O)NCC(=O)OCC)CCC4(C)CCC23C)C1(C)C (stereo not shown) [Compound 2, 11-(2-(2-Ethoxy-2-oxoethylamino)-2-oxoethylcarbamoyl)-4,4,6a,6b,8a,11,14b-heptamethyl-14-oxo-1,2,3,4,4a,5,6,6a,6b,7,8,8a,9,10,11,12,12a,14,14a,14b-icosahydropicen-3-yl 2-(2-(tert-Butoxycarbonylamino)-4-methylpentanamido)pentanoate] | 169 to 171 |  | 18 ± 0.14 | 92.63% | 12 ± 0.82 | 30 ± 0.13 | 15 ± 0.25 |  | 17 ± 0.11 |  | 70.3 ± 0.9 (≈ 76 µM) | 7.7 ± 1.3 (≈ 8.32 µM) |  |  |  |  |  |
| CC1(C(=O)NCC(=O)NCC(=O)O)CCC2(C)CCC3(C)C(=CC(=O)C4C5(C)CCC(O)C(C)(C)C5CCC43C)C2C1 (stereo not shown) [Compound 3, 2-(2-(10-Hydroxy-2,4a,6a,6b,9,9,12a-heptamethyl-13-oxo-1,2,3,4,4a,5,6,6a,6b,7,8,8a,9,10,11,12,12a,12b,13,14b-icosahydropicene-2-carboxamido)acetamido)acetic acid] | 207 to 209 | 2 | 16 ± 0.31 | 97.66% | 17 ± 0.21 | 30 ± 0.25 | 15 ± 0.18 |  | 17 ± 0.32 | 12 ± 0.23 | 7.4 ± 0.4 (≈ 12.7 µM) | 5.1 ± 0.7 (≈ 8.72 µM) | 17 ± 0.17 |  |  |  |  |
| COc1cc2c(c(OC)c1OC)-c1ccc(OC)c(=O)cc1[C@@H](NC(C)=O)CC2 [colchicine, reference compound] |  |  |  |  |  |  |  |  |  |  |  |  |  | 40.7 |  |  |  |
| CC(C)CC(NC(=O)CNC(=O)CNC(=O)C1(C)CCC2(C)CCC3(C)C(=CC(=O)C4C5(C)CCC(O)C(C)(C)C5CCC43C)C2C1)C(=O)O (stereo not shown) [Compound 7, 2-(2-(2-(10-Hydroxy-2,4a, 6a, 6b, 9,9, 12a-heptamethyl-13-oxo-1,2,3,4,4a, 5,6,6a, 6b, 7,8,8a, 9, 10, 11, 12, 12a, 12b, 13, 14b-icosahydropicene-2-carboxamido)acetamido)acetamido)-4-methylpentanoic Acid] | 210 to 212 |  | 15 ± 0.21 | 98.06% |  | 30 ± 0.11 | 13 ± 0.14 |  |  |  | 3 ± 1.1 (≈ 4.3 µM) | 3.7 ± 0.2 (≈ 5.3 µM) | 12 ± 0.14 |  | 96.76 | 3.3 ± 0.1 (≈ 4.73 µM) |  |
| CNC(C)C1CCC(N)C(OC2C(N)CC(N)C(OC3OCC(C)(O)C(NC)C3O)C2O)O1 (stereo not shown) [GM, gentamicin, reference compound] |  |  | 26.3 ± 0.15 |  | 27.2 ± 0.80 | 24.4 ± 0.72 | 24.41 ± 0.18 |  | 25.4 ± 0.18 |  |  |  | 20.0 ± 0.30 |  |  |  |  |
| COC(=O)C(CC(C)C)NC(=O)CNC(=O)CNC(=O)C1(C)CCC2(C)CCC3(C)C(=CC(=O)C4C5(C)CCC(O)C(C)(C)C5CCC43C)C2C1 (stereo not shown) [Compound 6, Methyl 2-(2-(2-(10-Hydroxy-2,4a,6a,6b,9,9,12a-heptamethyl-13-oxo-1,2,3,4,4a,5,6,6a,6b,7,8,8a,9,10,11,12,12a,12b,13,14b-icosahydropicene-2-carboxamido)acetamido)acetamido)-4-methylpentanoate] | 170 to 172 |  |  | weak effect |  |  |  | weak cytotoxic effect |  |  |  |  |  |  |  |  |  |
| CCOC(=O)CNC(=O)CNC(=O)CNC(=O)CNC(=O)C1(C)CCC2(C)CCC3(C)C(=CC(=O)C4C5(C)CCC(O)C(C)(C)C5CCC43C)C2C1 (stereo not shown) [Compound 4, Ethyl 1-(10-Hydroxy-2,4a,6a,6b,9,9,12a-heptamethyl-13-oxo-1,2,3,4,4a,5,6,6a,6b,7,8,8a,9,10,11,12,12a,12b,13,14b-icosahydropicen-2-yl)-1,4,7,10-tetraoxo-2,5,8,11-tetraazatridecan-13-oate] (X1-GGGG-OEt) | 130 to 133 |  | 13 ± 0.15 |  | 11 ± 0.24 | 29 ± 0.13 | 13 ± 0.16 |  | 10 ± 0.13 | 15 ± 0.12 | 73 ± 1.4 (≈ 100 µM) | 6.1 ± 0.4 (≈ 8.39 µM) | 12 ± 0.23 |  |  |  | 84.80 |
| COC(=O)C(CC(C)C)NC(=O)CNC(=O)CNC(=O)C1(C)CCC2(C)CCC3(C)C(=CC(=O)C4C5(C)CCC(OC(=O)CNC(=O)CNC(=O)OC(C)(C)C)C(C)(C)C5CCC43C)C2C1 (stereo not shown) [Compound 8, Methyl 2-(2-(2-(10-(2-(2-(Tert-butoxycarbonylamino)acetamido)acetoxy)-2,4a,6a,6b,9,9,12a-heptamethyl-13-oxo-1,2,3,4,4a,5,6,6a,6b,7,8,8a,9,10,11,12,12a,12b,13,14b-icosahydropicene-2-carboxamido)acetamido)acetamido)-4-methylpentanoate] |  |  | 15 ± 0.16 | 97.10% | 12 ± 0.22 | 30 ± 0.17 | 14 ± 0.16 |  | 13 ± 0.24 |  | 60.7 ± 0.6 (≈ 65.5 µM) | 6.9 ± 1.1 (≈ 7.45 µM) |  |  |  |  |  |
